# Source: patent US20240099343A1, “USE OF GINGERDIOL COMPOUNDS TO ENHANCE FLAVOR” (Firmenich SA, priority 2021, published 2024)
# Tests used:
# [1] = Sensory testing with salt reduction, mushroom-based cream soup, panel of four expert tasters; assay type: in vivo; conditions: 20% reduced salt (0.684%) with 1 ppm compound, scale from 1 to 10
# Protocol: Sensory testing was carried out using a panel of four (4) expert tasters, who rated the taste of the a mushroom-based cream soup with: (a) a normal amount of salt (0.855%); (b) 20% reduced salt (0.684%); and (c) 20% reduced salt (0.684%) with 1 ppm [6]-gingerdiol-diacetate. The panelists rated the soups for salt intensity, umami intensity, bitter intensity, and overall liking on a scale from 1 to 10.
# [2] = Sensory testing with salt reduction, meat flavoring formulation, panel of three expert tasters; assay type: in vivo; conditions: 20% reduced salt (0.646%) with 1 ppm compound, scale from 1 to 10
# Protocol: Further sensory testing was carried out using a panel of three (3) expert tasters, who rated the taste of a meat flavoring formulation with: (a) a normal amount of salt ([…]); (b) 20% reduced salt (0.646%); and (c) 20% reduced salt (0.646%) with 1 ppm [6]-gingerdiol-diacetate. The panelists rated the soups for salt intensity, umami intensity, bitter intensity, and overall liking on a scale from 1 to 10.
structure (smiles),measurement,setting,value
"CCCCCC(CC(CCc1ccc(O)c(OC)c1)OC(C)=O)OC(C)=O (centres unmarked) [Gingerdiol, [6]-gingerdiol-diacetate]",Bitter (bitter intensity),[1],0.0
same,Overall Liking,[1],2.3
same,Saltiness (salt intensity),[1],3.3
same,Umami (umami intensity),[1],3.0
same,Bitter (bitter intensity),[2],2.3
same,Overall Liking,[2],5.0
same,Saltiness (salt intensity),[2],5.3
same,Umami (umami intensity),[2],4.0
